Laboratory results reported in ChEMBL document CHEMBL4138197, “Design, synthesis and pharmacological evaluation of N-(5-chloro-2,4-dihydroxybenzoyl)-(R)-N-arylmethyl-1,2,3,4-tetrahydro-3-isoquinolinecarboxamides as potent Hsp90 inhibitors” (Eur J Med Chem, 2018).
Activity calls are given as the source filed them. The calls are words filed in the database; no cut-off is given here.

How the values were obtained:
SK-OV-3 = assay: Antiproliferative activity against human SKOV3 cells by SRB assay; format: functional, cell-based
MDA-MB-231 = assay: Antiproliferative activity against human MDA-MB-231 cells by SRB assay; format: functional, cell-based
NCI-H1299 = assay: Antiproliferative activity against human NCI-H1299 cells by SRB assay; format: functional, cell-based
MDA-MB-453 [1] = assay: Cell cycle arrest in human MDA-MB-453 cells assessed as reduction in accumulation at S phase at 0.25 to 1 uM after 12 hrs by propidium iodide-staining based flow cytometry; format: functional
[2] = target: Heat shock protein HSP90 (Homo sapiens) (UniProt P07900+P08238); assay: Inhibition of HSP90 in human MDA-MB-453 cells assessed as suppression of TNFalpha-induced NFkappaB activation by measuring reduction in relA/p65 translocation to the nucleus at 0.25 uM after 24 hrs by Western blot analysis; format: cell-based
MDA-MB-453 [3] = assay: Induction of apoptosis in human MDA-MB-453 cells assessed as early apoptotic cells at 4 uM after 48 hrs by Annexin V-FITC/propidium iodide-staining based flow cytometry (reference value: 1.65%); format: functional
PC-3 = assay: Antiproliferative activity against human PC3 cells by SRB assay; format: functional, cell-based
SH-SY5Y = assay: Antiproliferative activity against human SH-SY5Y cells by SRB assay; format: functional, cell-based
MDA-MB-453 [4] = assay: Effect on Bax protein expression in human MDA-MB-453 cells at 0.25 uM incubated for 6 to 48 hrs by Western blot analysis; format: functional, cell-based
MDA-MB-453 [5] = assay: Induction of apoptosis in human MDA-MB-453 cells assessed as increase in cleaved PARP activity at 0.25 uM up to 48 hrs in presence of z-VAD-fmk by Western blot analysis; format: functional, cell-based
[6] = target: T1, MAP kinase p38 (Homo sapiens) (UniProt O15264+Q15759+Q16539+P53778); assay: Induction of p38 in human MDA-MB-453 cells assessed as upregulation of Hsp27 Ser82 phosphorylation at Ser82 at 0.25 uM after 2 hrs by Western blot analysis; format: cell-based
MDA-MB-453 [7] = assay: Induction of apoptosis in human MDA-MB-453 cells assessed as increase in cleaved caspase7 activity at 0.25 uM up to 48 hrs by Western blot analysis; format: functional, cell-based
HeLa = assay: Antiproliferative activity against human HeLa cells by SRB assay; format: functional, cell-based
MDA-MB-453 [8] = assay: Induction of apoptosis in human MDA-MB-453 cells assessed as late apoptotic cells at 4 uM after 48 hrs by Annexin V-FITC/propidium iodide-staining based flow cytometry (reference value: 3.40%); format: functional
MDA-MB-453 [9] = assay: Induction of apoptosis in human MDA-MB-453 cells assessed as increase in cleaved caspase3 activity at 0.25 uM up to 48 hrs by Western blot analysis; format: functional, cell-based
[10] = target: Heat shock protein HSP 90-alpha (Homo sapiens) (UniProt P07900); assay: Binding affinity to HSP90alpha in HEK293T cells assessed as induction of thermal stabilisation of HSP90alpha at 10 uM pre-incubated for 3 hrs followed by heating at 37 to 63 degC for 3 mins then subsequent cooling for 3 mins by Western blot-based CESTA relative to beta actin; format: cell-based
MCF7 = assay: Antiproliferative activity against human MCF7 cells by SRB assay; format: functional, cell-based
HepG2 = assay: Antiproliferative activity against human HepG2 cells by SRB assay; format: functional, cell-based
[11] = target: T2, Inhibitor of nuclear factor kappa-B kinase subunit alpha (Homo sapiens) (UniProt O15111); assay: Induction of IKKalpha association to hsp27 in human MDA-MB-453 cells at 0.25 uM after 6 hrs by immunoprecipitation and Western analysis; format: cell-based
T2 sequence (whole entry): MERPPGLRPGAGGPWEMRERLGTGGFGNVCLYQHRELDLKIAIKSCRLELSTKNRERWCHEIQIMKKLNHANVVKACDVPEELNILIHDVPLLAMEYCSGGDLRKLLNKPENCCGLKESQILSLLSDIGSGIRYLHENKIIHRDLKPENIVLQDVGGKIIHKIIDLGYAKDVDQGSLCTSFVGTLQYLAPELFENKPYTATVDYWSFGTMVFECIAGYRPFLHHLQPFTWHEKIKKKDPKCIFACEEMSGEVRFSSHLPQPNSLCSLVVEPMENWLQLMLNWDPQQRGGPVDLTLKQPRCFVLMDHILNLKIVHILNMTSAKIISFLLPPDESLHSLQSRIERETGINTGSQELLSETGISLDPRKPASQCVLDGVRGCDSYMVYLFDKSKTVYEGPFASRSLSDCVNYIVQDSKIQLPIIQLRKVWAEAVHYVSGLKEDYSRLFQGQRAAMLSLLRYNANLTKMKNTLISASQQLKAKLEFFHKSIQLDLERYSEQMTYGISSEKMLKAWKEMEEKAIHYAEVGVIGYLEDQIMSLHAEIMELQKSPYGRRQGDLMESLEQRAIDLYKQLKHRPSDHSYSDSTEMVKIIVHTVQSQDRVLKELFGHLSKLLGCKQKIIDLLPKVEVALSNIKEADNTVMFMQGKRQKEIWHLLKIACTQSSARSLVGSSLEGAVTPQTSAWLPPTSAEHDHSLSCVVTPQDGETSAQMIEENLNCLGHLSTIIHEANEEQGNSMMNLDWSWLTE

[12] = target: Heat shock protein HSP 90-alpha (Homo sapiens) (UniProt P07900); assay: Inhibition of HSP90alpha in human MDA-MB-453 cells assessed as down-regulation of C-RAF levels by Western blot analysis; format: cell-based
MDA-MB-453 [13] = assay: Induction of apoptosis in human MDA-MB-453 cells assessed as increase in cleaved PARP activity at 0.25 uM up to 48 hrs by Western blot analysis; format: functional, cell-based
[14] = target: T1, MAP kinase p38 (Homo sapiens); assay: Induction of p38 in human MDA-MB-453 cells assessed as upregulation of Hsp27 phosphorylation at Ser82 at 0.25 uM after 2 hrs in presence of […] by Western blot analysis; format: cell-based
MDA-MB-453 [15] = assay: Induction of apoptosis in human MDA-MB-453 cells assessed upregulation of bid expression at 0.25 uM by Western blot analysis; format: functional, cell-based; conditions: TDE = time-dependent effect
[16] = target: Heat shock protein HSP 90-alpha (Homo sapiens) (UniProt P07900); assay: Inhibition of HSP90alpha in human MDA-MB-453 cells assessed as upregulation of HSP70 levels by Western blot analysis; format: cell-based
MDA-MB-453 [17] = assay: Induction of apoptosis in human MDA-MB-453 cells assessed upregulation of bim expression at 0.25 uM by Western blot analysis; format: functional, cell-based; conditions: TDE = time-dependent effect
MDA-MB-453 [18] = assay: Induction of apoptosis in human MDA-MB-453 cells assessed as increase in cleaved caspase7 activity at 0.25 uM up to 48 hrs in presence of z-VAD-fmk by Western blot analysis; format: functional, cell-based
SW480 = assay: Antiproliferative activity against human SW480 cells by SRB assay; format: functional, cell-based
MDA-MB-453 [19] = assay: Induction of apoptosis in human MDA-MB-453 cells assessed as early apoptotic cells at 0.25 uM after 48 hrs by Annexin V-FITC/propidium iodide-staining based flow cytometry (reference value: 1.65%); format: functional

inhibition [2]: Active
Activity [6]: Active
Activity [10]: Active
Activity [11]: Active
inhibition [12]: Dose-dependent effect
Activity [14]: inactive
inhibition [16]: Dose-dependent effect
Compound: O=C(NCc1ccncc1)[C@H]1Cc2ccccc2CN1C(=O)c1cc(Cl)c(O)cc1O
Activity (SK-OV-3): Active
Activity (MDA-MB-231): Active
Activity (NCI-H1299): Active
Activity (MDA-MB-453 [1]): Active
Activity (MDA-MB-453 [3]): 23.49%
Activity (PC-3): Active
Activity (SH-SY5Y): Active
Activity (MDA-MB-453 [4]): inactive
Activity (MDA-MB-453 [5]): inactive
Activity (MDA-MB-453 [7]): Active
Activity (HeLa): Active
Activity (MDA-MB-453 [8]): 18.32%
Activity (MDA-MB-453 [9]): Active
Activity (MCF7): Active
Activity (HepG2): Active
Activity (MDA-MB-453 [13]): Active
Activity (MDA-MB-453 [15]): Tde
Activity (MDA-MB-453 [17]): Tde
Activity (MDA-MB-453 [18]): inactive
Activity (SW480): Active
Activity (MDA-MB-453 [19]): 4.26%
